Laboratory results as given in patent US20220348595A1, “COMPOUNDS AND METHODS FOR THE TARGETED DEGRADATION OF ESTROGEN RECEPTORS” (Endotarget Inc., priority 2021, published 2022).

Legend:
Assay type in all cases: cell-based
ER = molecular target: T1, ER (Homo sapiens, UniProt P03372); assay: ER antagonism (T47D ERE luciferase), T47d-kb-Luc cells; conditions: read-out: IC50 (ER antagonistm)
T1 construct: endogenous in cells; host or cells: T47d-kb-Luc (T47D stably transfected with a luciferase reporter gene only)
T1 sequence (P03372 1-595): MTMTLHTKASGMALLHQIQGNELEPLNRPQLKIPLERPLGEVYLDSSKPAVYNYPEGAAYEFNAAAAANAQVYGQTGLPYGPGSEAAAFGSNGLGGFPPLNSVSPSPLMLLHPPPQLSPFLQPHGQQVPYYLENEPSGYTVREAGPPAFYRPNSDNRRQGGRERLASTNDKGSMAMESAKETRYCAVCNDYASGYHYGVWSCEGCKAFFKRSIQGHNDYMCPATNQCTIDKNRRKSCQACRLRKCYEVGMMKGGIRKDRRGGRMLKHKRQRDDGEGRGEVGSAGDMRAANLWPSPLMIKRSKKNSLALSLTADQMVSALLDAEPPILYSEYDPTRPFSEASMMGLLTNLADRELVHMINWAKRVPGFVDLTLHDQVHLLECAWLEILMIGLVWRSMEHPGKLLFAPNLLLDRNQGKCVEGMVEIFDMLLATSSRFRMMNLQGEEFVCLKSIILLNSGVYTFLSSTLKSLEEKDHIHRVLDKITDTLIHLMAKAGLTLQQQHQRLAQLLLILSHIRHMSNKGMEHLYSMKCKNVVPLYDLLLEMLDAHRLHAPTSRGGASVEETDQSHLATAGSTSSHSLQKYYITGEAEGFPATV
In short: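 Stably transfected T47d-kb-Luc human breast cancer cells were used, and antagonism was measured as inhibition of estradiol-driven activity. Data were normalised to the estradiol control. Five concentrations were tested in quadruplicate across at least three experiments.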

ERα = molecular target: T2, ERα (Homo sapiens, UniProt P03372); assay: ER degradation in MCF-7 cells (Western blot); conditions: for DC50: ER degradation, 24 hours; for Dmax: MCF7, Maximal ER degradation, read-out: Dmax
T2 construct: endogenous in cells; host or cells: MCF-7
T2 sequence (P03372 1-595): T1 sequence (P03372 1-595)
In short: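 MCF-7 cells treated with a range of compound concentrations for 24 hours, then lysed; 50 μg protein probed for ERα by Western blot with infrared imaging. DC50 is concentration giving 50% ER reduction; Dmax is the highest percentage reduction over the range tested.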

[1] = system: MCF-7 breast cancer cells; assay: MCF-7 proliferation / cell viability assay; conditions: Homo sapiens, MCF7; MCF-7 proliferation with 0.1 nM 17-beta estradiol; read-out: IC50 (anti-proliferation)
In short: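 MCF-7 cells in 5% FBS DMEM were exposed for 5 days to compound at 6 doses from 10^−10 M to 10^−5 M, with DMSO as vehicle. Viable cells were counted by Coulter counter. Survival ratio = treated/vehicle viable cell number, vehicle set to 100%.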

CC/C(=C(\c1ccc(O)cc1)c1ccc(OCCN2CCN(C(=O)N3CCN(c4ccc5c(c4)CN([C@@H]4CCC(=O)NC4=O)C5=O)CC3)CC2)cc1)c1ccccc1 [Compound 79, (R,Z)-3-(5-(4-(4-(2-(4-(1-(4-hydroxyphenyl)-2-phenylbut-1-en-1-yl)phenoxy)ethyl)piperazine-1-carbonyl)piperazin-1-yl)-1-oxoisoindolin-2-yl)piperidine-2,6-dione]
IC50 (ER): < 10 nM | DC50 (ERα): < 10 nM | Dmax (ERα): > 90% | IC50 [1]: < 10 nM

CC/C(=C(/c1ccc(OCCCCCN2CCN(c3ccc4c(c3)CN(C3CCC(=O)NC3=O)C4=O)CC2)cc1)c1ccc(B(O)O)cc1)c1ccccc1 (centres unmarked) [Compound 35, (Z)-(4-(1-(4-((5-(4-(2-(2,6-dioxopiperidin-3-yl)-1-oxoisoindolin-5-yl)piperazin-1-yl)pentyl)oxy)phenyl)-2-phenylbut-1-en-1-yl)phenyl)boronic acid]
IC50 (ER): 10 to 50 nM | DC50 (ERα): 10 to 50 nM | Dmax (ERα): > 90% | IC50 [1]: 10 to 50 nM

CC/C(=C(/c1ccc(O)cc1)c1ccc(N2CCN(C(=O)N3CCN(c4ccc5c(c4)CN([C@H]4CCC(=O)NC4=O)C5=O)CC3)CC2)cc1)c1ccccc1 [Compound 101, (S,Z)-3-(5-(4-(4-(4-(1-(4-hydroxyphenyl)-2-phenylbut-1-en-1-yl)phenyl)piperazine-1-carbonyl)piperazin-1-yl)-1-oxoisoindolin-2-yl)piperidine-2,6-dione]
IC50 (ER): < 10 nM | DC50 (ERα): < 10 nM | Dmax (ERα): > 90% | IC50 [1]: 10 to 50 nM

CC/C(=C(\c1ccc(B(O)O)cc1)c1ccc(N2CCC(CCN3CCN(c4ccc5c(c4)C(=O)N(C4CCC(=O)NC4=O)C5=O)CC3)CC2)cc1)c1ccccc1 (centres unmarked) [Compound 63, (Z)-(4-(1-(4-(4-(2-(4-(2-(2,6-dioxopiperidin-3-yl)-1,3-dioxoisoindolin-5-yl)piperazin-1-yl)ethyl)piperidin-1-yl)phenyl)-2-phenylbut-1-en-1-yl)phenyl)boronic acid]
IC50 (ER): 10 to 50 nM | DC50 (ERα): 10 to 50 nM | Dmax (ERα): > 90% | IC50 [1]: 10 to 50 nM

CC/C(=C(/c1ccc(OCCN2CCN(CC3CCN(c4ccc5c(c4)C(=O)N(C4CCC(=O)NC4=O)C5=O)CC3)CC2)cc1)c1ccc(B(O)O)cc1)c1ccccc1 (centres unmarked) [Compound 17, (Z)-(4-(1-(4-(2-(4-((1-(2-(2,6-dioxopiperidin-3-yl)-1,3-dioxoisoindolin-5-yl)piperidin-4-yl)methyl)piperazin-1-yl)ethoxy)phenyl)-2-phenylbut-1-en-1-yl)phenyl)boronic acid]
IC50 (ER): 10 to 50 nM | DC50 (ERα): < 10 nM | Dmax (ERα): > 90% | IC50 [1]: 10 to 50 nM

CC/C(=C(/c1ccc(O)cc1)c1ccc(N2CCN(C(=O)N3CCN(c4ccc5c(c4)CN(C4CCC(=O)NC4=O)C5=O)CC3)CC2)cc1)c1ccccc1 (centres unmarked) [Compound 100]
IC50 (ER): < 10 nM | DC50 (ERα): < 10 nM | Dmax (ERα): > 90% | IC50 [1]: 10 to 50 nM

CC/C(=C(\c1ccc(B(O)O)cc1)c1ccc(N2CCC(CN3CCN(c4ccc5c(c4)C(=O)N(C4CCC(=O)NC4=O)C5=O)CC3)CC2)cc1)c1ccccc1 (centres unmarked) [Compound 5, (Z)-(4-(1-(4-(4-((4-(2-(2,6-dioxopiperidin-3-yl)-1,3-dioxoisoindolin-5-yl)piperazin-1-yl)methyl)piperidin-1-yl)phenyl)-2-phenylbut-1-en-1-yl)phenyl)boronic acid]
IC50 (ER): 10 to 50 nM | DC50 (ERα): 10 to 50 nM | Dmax (ERα): > 90% | IC50 [1]: > 50 nM

CC/C(=C(\c1ccc(B(O)O)cc1)c1ccc(N2CCN(CCCC3CCN(c4ccc5c(c4)C(=O)N(C4CCC(=O)NC4=O)C5=O)CC3)CC2)cc1)c1ccccc1 (centres unmarked) [Compound 55, (Z)-(4-(1-(4-(4-(3-(1-(2-(2,6-dioxopiperidin-3-yl)-1,3-dioxoisoindolin-5-yl)piperidin-4-yl)propyl)piperazin-1-yl)phenyl)-2-phenylbut-1-en-1-yl)phenyl)boronic acid]
IC50 (ER): 10 to 50 nM | DC50 (ERα): < 10 nM | Dmax (ERα): > 75% | IC50 [1]: 10 to 50 nM

CC/C(=C(\c1ccc(B(O)O)cc1)c1ccc(N2CCN(C(=O)N3CCC(N4CCN(c5ccc6c(c5)CN(C5CCC(=O)NC5=O)C6=O)CC4)CC3)CC2)cc1)c1ccccc1 (centres unmarked) [Compound 110, (Z)-(4-(1-(4-(4-(4-(4-(2-(2,6-dioxopiperidin-3-yl)-1-oxoisoindolin-5-yl)piperazin-1-yl)piperidine-1-carbonyl)piperazin-1-yl)phenyl)-2-phenylbut-1-en-1-yl)phenyl)boronic acid]
IC50 (ER): < 10 nM | DC50 (ERα): 10 to 50 nM | Dmax (ERα): > 90% | IC50 [1]: 10 to 50 nM

CC/C(=C(\c1ccc(OCCN2CCN(CC3CCN(c4ccc5c(c4)CN(C4CCC(=O)NC4=O)C5=O)CC3)CC2)cc1)c1ccc(B(O)O)cc1)c1ccccc1 (centres unmarked) [Compound 22, (E)-(4-(1-(4-(2-(4-((1-(2-(2,6-dioxopiperidin-3-yl)-1-oxoisoindolin-5-yl)piperidin-4-yl)methyl)piperazin-1-yl)ethoxy)phenyl)-2-phenylbut-1-en-1-yl)phenyl)boronic acid]
IC50 (ER): < 10 nM | DC50 (ERα): < 10 nM | Dmax (ERα): > 90% | IC50 [1]: < 10 nM

CC/C(=C(/c1ccc(B(O)O)cc1)c1ccc(N2CCC(CN3CCN(c4ccc5c(c4)C(=O)N(C4CCC(=O)NC4=O)C5=O)CC3)CC2)cc1)c1ccccc1 (centres unmarked) [Compound 6, (E)-(4-(1-(4-(4-((4-(2-(2,6-dioxopiperidin-3-yl)-1,3-dioxoisoindolin-5-yl)piperazin-1-yl)methyl)piperidin-1-yl)phenyl)-2-phenylbut-1-en-1-yl)phenyl)boronic acid]
IC50 (ER): 10 to 50 nM | DC50 (ERα): 10 to 50 nM | Dmax (ERα): > 90% | IC50 [1]: > 50 nM

CC/C(=C(\c1ccc(O)cc1)c1ccc(OCCN2CCN(C(=O)N3CCC(N4CCN(c5ccc6c(c5)CN(C5CCC(=O)NC5=O)C6=O)CC4)CC3)CC2)cc1)c1ccccc1 (centres unmarked) [Compound 93, (Z)-3-(5-(4-(1-(4-(2-(4-(1-(4-hydroxyphenyl)-2-phenylbut-1-en-1-yl)phenoxy)ethyl)piperazine-1-carbonyl)piperidin-4-yl)piperazin-1-yl)-1-oxoisoindolin-2-yl)piperidine-2,6-dione]
IC50 (ER): < 10 nM | DC50 (ERα): 10 to 50 nM | Dmax (ERα): > 90% | IC50 [1]: < 10 nM

CC/C(=C(\c1ccc(B(O)O)cc1)c1ccc(N2CCN(C(=O)N3CCN(c4ccc5c(c4)CN([C@@H]4CCC(=O)NC4=O)C5=O)CC3)CC2)cc1)c1ccccc1 [Compound 105]
IC50 (ER): < 10 nM | DC50 (ERα): < 10 nM | Dmax (ERα): > 90% | IC50 [1]: < 10 nM

CC/C(=C(/c1ccc(B(O)O)cc1)c1ccc(N2CCN(C(=O)N3CCN(c4ccc5c(c4)CN([C@H]4CCC(=O)NC4=O)C5=O)CC3)CC2)cc1)c1ccccc1 [Compound 107, (S,E)-(4-(1-(4-(4-(4-(2-(2,6-dioxopiperidin-3-yl)-1-oxoisoindolin-5-yl)piperazine-1-carbonyl)piperazin-1-yl)phenyl)-2-phenylbut-1-en-1-yl)phenyl)boronic acid]
IC50 (ER): < 10 nM | DC50 (ERα): < 10 nM | Dmax (ERα): > 90% | IC50 [1]: < 10 nM

CC/C(=C(\c1ccc(B2OC(C)(C)C(C)(C)O2)cc1)c1ccc(N2CCC(CCN3CCN(c4ccc5c(c4)CN(C4CCC(=O)NC4=O)C5=O)CC3)CC2)cc1)c1ccccc1 (centres unmarked) [Compound 9, (Z)-3-(1-oxo-5-(4-(2-(1-(4-(2-phenyl-1-(4-(4,4,5,5-tetramethyl-1,3,2-dioxaborolan-2-yl)phenyl)but-1-en-1-yl)phenyl)piperidin-4-yl)ethyl)piperazin-1-yl)isoindolin-2-yl)piperidine-2,6-dione]
IC50 (ER): < 10 nM | DC50 (ERα): 10 to 50 nM | Dmax (ERα): > 90% | IC50 [1]: < 10 nM

CC/C(=C(\c1ccc(B(O)O)cc1)c1ccc(N2CCN(CCC3CCN(c4ccc5c(c4)C(=O)N(C4CCC(=O)NC4=O)C5=O)CC3)CC2)cc1)c1ccccc1 (centres unmarked) [Compound 65, (Z)-(4-(1-(4-(4-(2-(1-(2-(2,6-dioxopiperidin-3-yl)-1,3-dioxoisoindolin-5-yl)piperidin-4-yl)ethyl)piperazin-1-yl)phenyl)-2-phenylbut-1-en-1-yl)phenyl)boronic acid]
IC50 (ER): < 10 nM | DC50 (ERα): < 10 nM | Dmax (ERα): > 90% | IC50 [1]: 10 to 50 nM

CC/C(=C(\c1ccc(B(O)O)cc1)c1ccc(N2CCN(C(=O)N3CCC(CN4CCN(c5ccc6c(c5)CN(C5CCC(=O)NC5=O)C6=O)CC4)CC3)CC2)cc1)c1ccccc1 (centres unmarked) [Compound 114, (Z)-(4-(1-(4-(4-(4-((4-(2-(2,6-dioxopiperidin-3-yl)-1-oxoisoindolin-5-yl)piperazin-1-yl)methyl)piperidine-1-carbonyl)piperazin-1-yl)phenyl)-2-phenylbut-1-en-1-yl)phenyl)boronic acid]
IC50 (ER): < 10 nM | DC50 (ERα): < 10 nM | Dmax (ERα): > 90% | IC50 [1]: < 10 nM
